Measurements as given in patent US10927123B2, “Modulators of the beta-3 adrenergic receptor useful for the treatment or prevention of disorders related thereto” (Arena Pharmaceuticals, Inc., priority 2016, dated 2021).

What follows are compounds tested against Beta-3 Adrenergic Receptor (Homo sapiens (Human), UniProt P13945) (assay: HTRF cAMP antagonist assay (IC50 determination)). Details: CHO-K1 cells stably expressing recombinant receptor; antagonism of isoproterenol at EC90; cAMP readout.
Format: cell-based
How it was run: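 CHO-K1 cells stably expressing receptor, 1500 cells/well, preincubated briefly with 10-point 5-fold compound series (top final typically 10 or 100 μM) in PBS with 1 mM IBMX, then challenged with isoproterenol at EC90 for 1 h at room temperature. cAMP read by HTRF against on-plate standard curve; IC50 from dose-response.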

Chain of Beta-3 Adrenergic Receptor (P13945 whole entry, species assumed): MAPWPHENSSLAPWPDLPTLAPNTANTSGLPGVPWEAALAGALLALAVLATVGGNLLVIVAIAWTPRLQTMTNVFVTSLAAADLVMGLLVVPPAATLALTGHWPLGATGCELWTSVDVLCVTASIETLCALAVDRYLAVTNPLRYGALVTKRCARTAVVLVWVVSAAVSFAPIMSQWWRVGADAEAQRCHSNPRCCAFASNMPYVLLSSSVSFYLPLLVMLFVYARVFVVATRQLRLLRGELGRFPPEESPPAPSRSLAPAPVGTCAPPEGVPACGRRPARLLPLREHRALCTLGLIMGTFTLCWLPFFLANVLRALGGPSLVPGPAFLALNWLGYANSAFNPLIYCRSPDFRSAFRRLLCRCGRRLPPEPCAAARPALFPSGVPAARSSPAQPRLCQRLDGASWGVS

IC50 [nM]	SMILES
38	CS(=O)(=O)c1cccc(OC[C@@H](O)CNC2COC3(CCN(S(=O)(=O)c4ccc5c(c4)CCO5)CC3)C2)c1 (stereo partly drawn) [Compound 74, (2S)-1-(8-(2,3-dihydrobenzofuran-5-ylsulfonyl)-1-oxa-8-azaspiro[4.5]decan-3-ylamino)-3-(3-(methylsulfonyl)phenoxy)propan-2-ol]
26.7	CS(=O)(=O)c1cccc(OC[C@@H](O)CNC2COC3(CCN(S(=O)(=O)c4ccc5ncccc5c4)CC3)C2)c1 (stereo partly drawn) [Compound 75, (2S)-1-(3-(methylsulfonyl)phenoxy)-3-(8-(quinolin-6-ylsulfonyl)-1-oxa-8-azaspiro[4.5]decan-3-ylamino)propan-2-ol]
35.9	CS(=O)(=O)c1cccc(OC[C@@H](O)CNC2COC3(CCN(S(=O)(=O)c4ccc5[nH]cnc5c4)CC3)C2)c1 (stereo partly drawn) [Compound 76, (2S)-1-(8-(1H-benzo[d]imidazol-5-ylsulfonyl)-1-oxa-8-azaspiro[4.5]decan-3-ylamino)-3-(3-(methylsulfonyl)phenoxy)propan-2-ol]
35.1	CS(=O)(=O)c1cccc(OC[C@@H](O)CNC2COC3(CCN(S(=O)(=O)c4ccc5[nH]ncc5c4)CC3)C2)c1 (stereo partly drawn) [Compound 77, (2,5)-1-(8-(1H-indazol-5-ylsulfonyl)-1-oxa-8-azaspiro[4.5]decan-3-ylamino)-3-(3-(methylsulfonyl)phenoxy)propan-2-ol]
41.9	CNCc1ccc(-c2cccc(S(=O)(=O)N3CCC4(CC3)CC(NC[C@H](O)COc3cccc(S(C)(=O)=O)c3)CO4)c2)cc1 (stereo partly drawn) [Compound 78, (2S)-1-(8-(4′-((methylamino)methyl)biphenyl-3-ylsulfonyl)-1-oxa-8-azaspiro[4.5]decan-3-ylamino)-3-(3-(methylsulfonyl)phenoxy)propan-2-ol]
42.2	CCNCc1ccc(-c2cccc(S(=O)(=O)N3CCC4(CC3)CC(NC[C@H](O)COc3cccc(S(C)(=O)=O)c3)CO4)c2)cc1 (stereo partly drawn) [Compound 79, (2S)-1-(8-(4′-((ethylamino)methyl)biphenyl-3-ylsulfonyl)-1-oxa-8-azaspiro[4.5]decan-3-ylamino)-3-(3-(methylsulfonyl)phenoxy)propan-2-ol]
38.1	CC(C)NCc1ccc(-c2cccc(S(=O)(=O)N3CCC4(CC3)CC(NC[C@H](O)COc3cccc(S(C)(=O)=O)c3)CO4)c2)cc1 (stereo partly drawn) [Compound 80, (2S)-1-(8-(4′-((isopropylamino)methyl)biphenyl-3-ylsulfonyl)-1-oxa-8-azaspiro[4.5]decan-3-ylamino)-3-(3-(methylsulfonyl)phenoxy)propan-2-ol]
27.8	CC(C)CNCc1ccc(-c2cccc(S(=O)(=O)N3CCC4(CC3)CC(NC[C@H](O)COc3cccc(S(C)(=O)=O)c3)CO4)c2)cc1 (stereo partly drawn) [Compound 81, (2S)-1-(8-(4′-((isobutylamino)methyl)biphenyl-3-ylsulfonyl)-1-oxa-8-azaspiro[4.5]decan-3-ylamino)-3-(3-(methylsulfonyl)phenoxy)propan-2-ol]
43.2	CS(=O)(=O)c1cccc(OC[C@@H](O)CNC2COC3(CCN(S(=O)(=O)c4cccc(-c5ccc(CNCC(F)(F)F)cc5)c4)CC3)C2)c1 (stereo partly drawn) [Compound 82, (2S)-1-(3-(methylsulfonyl)phenoxy)-3-(8-(4′-((2,2,2-trifluoroethylamino)methyl)biphenyl-3-ylsulfonyl)-1-oxa-8-azaspiro[4.5]decan-3-ylamino)propan-2-ol]
53.5	O=S(=O)(CCO)c1cccc(OC[C@@H](O)CN[C@H]2COC3(CCN(S(=O)(=O)c4ccc5c(c4)CCCO5)CC3)C2)c1 [Compound 83, (S)-1-((R)-8-(chroman-6-ylsulfonyl)-1-oxa-8-azaspiro[4.5]decan-3-ylamino)-3-(3-(2-hydroxyethylsulfonyl)phenoxy)propan-2-ol]
54.7	CN1CCOc2ccc(S(=O)(=O)N3CCC4(CC3)C[C@@H](NC[C@H](O)COc3cccc(S(=O)(=O)CCO)c3)CO4)cc21 [Compound 84, (S)-1-(3-(2-hydroxyethylsulfonyl)phenoxy)-3-((R)-8-(4-methyl-3,4-dihydro-2H-benzo[6][1,4]oxazin-6-ylsulfonyl)-1-oxa-8-azaspiro[4.5]decan-3-ylamino)propan-2-ol]
17.8	CS(=O)(=O)c1cccc(OC[C@@H](O)CN[C@@H]2COC3(CCN(S(=O)(=O)c4cnc5ccccc5c4)CC3)C2)c1 [Compound 85, (S)-1-(3-(methylsulfonyl)phenoxy)-3-((S)-8-(quinolin-3-ylsulfonyl)-1-oxa-8-azaspiro[4.5]decan-3-ylamino)propan-2-ol]
9.1	O=S(=O)(CF)c1cccc(OC[C@@H](O)CNC2COC3(CCN(S(=O)(=O)c4ccc5ccccc5c4)CC3)C2)c1 (stereo partly drawn) [Compound 86, (2S)-1-(3-(fluoromethylsulfonyl)phenoxy)-3-(8-(naphthalen-2-ylsulfonyl)-1-oxa-8-azaspiro[4.5]decan-3-ylamino)propan-2-ol]
41.1	O=S(=O)(CCO)c1cccc(OC[C@@H](O)CN[C@H]2COC3(CCN(S(=O)(=O)c4ccc5c(c4)OCCC5)CC3)C2)c1 [Compound 87, (S)-1-((R)-8-(chroman-7-ylsulfonyl)-1-oxa-8-azaspiro[4.5]decan-3-ylamino)-3-(3-(2-hydroxyethylsulfonyl)phenoxy)propan-2-ol]
110	NCc1ccc(-c2cncc(S(=O)(=O)N3CCC4(CC3)C[C@@H](NC[C@H](O)COc3cccc(S(=O)(=O)CCO)c3)CO4)c2)cc1 [Compound 89, (S)-1-((R)-8-(5-(4-(aminomethyl)phenyl)pyridin-3-ylsulfonyl)-1-oxa-8-azaspiro[4.5]decan-3-ylamino)-3-(3-(2-hydroxyethylsulfonyl)phenoxy)propan-2-ol]
354	Cn1cc(-c2cncc(S(=O)(=O)N3CCC4(CC3)C[C@@H](NC[C@H](O)COc3cccc(S(=O)(=O)CCO)c3)CO4)c2)cn1 [Compound 90, (S)-1-(3-(2-hydroxyethylsulfonyl)phenoxy)-3-((R)-8-(5-(1-methyl-1H-pyrazol-4-yl)pyridin-3-ylsulfonyl)-1-oxa-8-azaspiro[4.5]decan-3-ylamino)propan-2-ol]
37.1	NCc1ccc(-c2cccc(S(=O)(=O)N3CCC4(CC3)C[C@@H](NC[C@H](O)COc3cccc(S(=O)(=O)CCO)c3)CO4)c2)cc1 [Compound 91, (S)-1-((R)-8-(4′-(aminomethyl)biphenyl-3-ylsulfonyl)-1-oxa-8-azaspiro[4.5]decan-3-ylamino)-3-(3-(2-hydroxyethylsulfonyl)phenoxy)propan-2-ol]
26.9	C=CS(=O)(=O)c1cccc(OC[C@@H](O)CN[C@H]2COC3(CCN(S(=O)(=O)c4cnc5ccccc5c4)CC3)C2)c1 [Compound 92, (S)-1-((R)-8-(quinolin-3-ylsulfonyl)-1-oxa-8-azaspiro[4.5]decan-3-ylamino)-3-(3-(vinylsulfonyl)phenoxy)propan-2-ol]
75	O=S(=O)(CCO)c1cccc(OC[C@@H](O)CN[C@H]2COC3(CCN(S(=O)(=O)c4ccc5ncccc5c4)CC3)C2)c1 [Compound 93, (S)-1-(3-(2-hydroxyethylsulfonyl)phenoxy)-3-((R)-8-(quinolin-6-ylsulfonyl)-1-oxa-8-azaspiro[4.5]decan-3-ylamino)propan-2-ol]
113	CS(=O)(=O)Cc1cccc(OC[C@H](O)CNC2COC3(CCN(S(=O)(=O)c4ccc5ccccc5c4)CC3)C2)c1 (stereo partly drawn) [Compound 94, (2R)-1-(3-(methylsulfonylmethyl)phenoxy)-3-(8-(naphthalen-2-ylsulfonyl)-1-oxa-8-azaspiro[4.5]decan-3-ylamino)propan-2-ol]
21.1	CS(=O)(=O)Cc1cccc(OC[C@@H](O)CN[C@H]2COC3(CCN(S(=O)(=O)c4cnc5ccccc5c4)CC3)C2)c1 [Compound 95, (S)-1-(3-(methylsulfonylmethyl)phenoxy)-3-((R)-8-(quinolin-3-ylsulfonyl)-1-oxa-8-azaspiro[4.5]decan-3-ylamino)propan-2-ol]
411	O=S(=O)(CCO)c1cccc(OC[C@@H](O)CN[C@H]2COC3(CCN(S(=O)(=O)c4cccc(-c5ccncc5)c4)CC3)C2)c1 [Compound 96, (S)-1-(3-(2-hydroxyethylsulfonyl)phenoxy)-3-((R)-8-(3-(pyridin-4-yl)phenylsulfonyl)-1-oxa-8-azaspiro[4.5]decan-3-ylamino)propan-2-ol]
212	O=S(=O)(CCO)c1cccc(OC[C@@H](O)CN[C@H]2COC3(CCN(S(=O)(=O)c4cccc(-c5cccnc5)c4)CC3)C2)c1 [Compound 97, (S)-1-(3-(2-hydroxyethylsulfonyl)phenoxy)-3-((R)-8-(3-(pyridin-3-yl)phenylsulfonyl)-1-oxa-8-azaspiro[4.5]decan-3-ylamino)propan-2-ol]
89	O=S(=O)(CCO)c1cccc(OC[C@@H](O)CN[C@H]2COC3(CCN(S(=O)(=O)c4ccc5cccnc5c4)CC3)C2)c1 [Compound 98, (S)-1-(3-(2-hydroxyethylsulfonyl)phenoxy)-3-((R)-8-(quinolin-7-ylsulfonyl)-1-oxa-8-azaspiro[4.5]decan-3-ylamino)propan-2-ol]
287	O=S(=O)(CCO)c1cccc(OC[C@@H](O)CN[C@H]2COC3(CCN(S(=O)(=O)c4ccc(-c5cccnc5)cc4)CC3)C2)c1 [Compound 99, (S)-1-(3-(2-hydroxyethylsulfonyl)phenoxy)-3-((R)-8-(4-(pyridin-3-yl)phenylsulfonyl)-1-oxa-8-azaspiro[4.5]decan-3-ylamino)propan-2-ol]
92.2	O=S(=O)(CCO)c1cccc(OC[C@@H](O)CN[C@H]2COC3(CCN(S(=O)(=O)c4cccc(-c5ccccn5)c4)CC3)C2)c1 [Compound 100, (S)-1-(3-(2-hydroxyethylsulfonyl)phenoxy)-3-((R)-8-(3-(pyridin-2-yl)phenylsulfonyl)-1-oxa-8-azaspiro[4.5]decan-3-ylamino)propan-2-ol]
466	O=S(=O)(CCO)c1cccc(OC[C@@H](O)CN[C@H]2COC3(CCN(S(=O)(=O)c4ccc(-c5ccncc5)cc4)CC3)C2)c1 [Compound 101, (S)-1-(3-(2-hydroxyethylsulfonyl)phenoxy)-3-((R)-8-(4-(pyridin-4-yl)phenylsulfonyl)-1-oxa-8-azaspiro[4.5]decan-3-ylamino)propan-2-ol]
